In patent US9018175B2 (Takeda GmbH, priority 2009, dated 2015):

Legend:
PDE4B1 = molecular target: T1, PDE4B1 (Homo sapiens, UniProt Q07343); assay: Inhibition of PDE4B1 activity (SPA, [3H]cAMP); assay type: biochemical; conditions: recombinant PDE4B1 expressed in SF21 cells; 0.5 pM [sic] cAMP; values given as bins; read-out: PDE4B1 inhibitory values measured as −logIC50 (converted)
T1 construct: made in house; host or cells: SF21 insect cells (baculovirus; pCR-Bac vector)
Protocol: The PDE4B1 (GB no. L20966) was a gift of Prof. M. Conti (Stanford University, USA). It was amplified from the original plasmid (pCMV5) via PCR with primers Rb18 (5′-[…]-3′) and Rb10 (5′-[…]-3′) and cloned into the pCR-Bac vector (Invitrogen, Groningen, NL).
The recombinant baculovirus was prepared by means of homologous recombination in SF9 insect cells. The expression plasmids were cotransfected with Baculo-Gold DNA (Pharmingen, Hamburg) using a standard protocol (Pharmingen, Hamburg). Wt virus-free recombinant virus supernatants were selected using plaque assay methods. After that, high-titre virus supernatants were prepared by amplifying 3 times. PDE4B1 was expressed in SF21 cells by infecting 2×10^6 cells/ml with an MOI (multiplicity of infection) between 1 and 10 in the serum-free medium Insect Express Sf9-S2 (PAA, Pasching, Austria). The cells were cultured at 28° C. for 48-72 hours, after which they were pelleted for 5-10 min at 1000×g and 4° C.
The SF21 insect cells were resuspended, at a concentration of approx. 10^7 cells/ml, in ice-cold (4° C.) homogenization buffer (20 mM Tris, pH 8.2, containing the following additions: 140 mM NaCl, 3.8 mM KCl, 1 mM EGTA, 1 mM MgCl2, 10 mM e-mercaptoethanol, 2 mM benzamidine, 0.4 mM Pefablock, 10 pM leupeptin, 10 pM pepstatin A, 5 pM trypsin inhibitor) and disrupted by ultrasonication. The homogenate was then centrifuged for 10 min at 1000, g and the supernatant was stored at −80° C. until subsequent use (see below). The protein content was determined by the Bradford method (BioRad, Munich) using BSA as the standard.
PDEB1 activities were measured in a 96-well platform using SPA (scintillation proximity assay) yttrium silicate beads (RPNQ1050 from GE Healthcare). In a first step the PDE activity operates hydrolysis of either [^3H] cAMP (substrate) into [^3H] 5′AMP. In a second step substrate and product are distinguished following addition of SPA yttrium silicate beads. Indeed, in the presence of zinc sulphate the linear [^3H] […] Close proximity of bound [^3H] […] The test volume is 100 pl and contains 20 mM Tris buffer (pH 7.4), 0.1 mg/ml of BSA, 5 mM Mg^2+, […] (including about 50,000 cpm of [3H]cAMP), 1 pl of the respective substance dilution in DMSO and sufficient recombinant PDE (1000, g supernatant, see above) to ensure that 10-20% of the cAMP is converted under the said experimental conditions. […] After a preincubation of 5 min at 37° C., the reaction is started by adding the substrate (cAMP) and the assays are incubated for a further 15 min; after that, they are stopped by adding SPA beads (50 pl). In accordance with the manufacturer's instructions, the SPA beads had previously been resuspended in water, but were then diluted 1:3 (v/v) in water; the diluted solution also contains 3 mM IBMX to ensure a complete PDE activity stop. After the beads have been sedimented (>30 min), the MTP's are analyzed in commercially available luminescence detection devices. The corresponding IC50 values of the compounds for the inhibition of PDE4B1 activity are determined from the concentration-effect curves by means of non-linear regression.

human PDE5 = molecular target: T2, human PDE5 (Homo sapiens, UniProt O76074); assay: Inhibition of PDE5 activity (SPA, [3H]cGMP, platelet lysate); assay type: biochemical; conditions: PDE5 from human platelet lysate; values given as bins; read-out: PDE5A inhibitory values measured as −logIC50 (converted)
T2 construct: from tissue; host or cells: human platelets from fresh donor blood (10,000 g supernatant of sonicated platelets)
Protocol: As a source for human PDE5, platelets are used. For that purpose, 150 ml fresh blood from human donors anticoagulated with citrate [final concentration 0.3% (w/v)] is centrifuged at 200 g for 10 min to obtain the so-called platelet-rich-plasma (PRP) as a supernatant. 1/10 volume of ACD solution (85 mM Na3-citrate, 111 mM D-glucose, 71 mM citric acid, pH 4.4) is added to 9/10 volume of PRP. After centrifugation (1,400 g, 10 min) the cell pellet is resuspended in 3 ml homogenization buffer (NaCl 140 mM, KCl 3.8 mM, EGTA (ethylene glycol tetraacetic acid) 1 mM, MgCl2 1 mM, Tris-HCl 20 mM, beta-mercaptoethanol 1 mM, pH 8.2) plus protease-inhibitor mix giving rise to the final concentrations of 0.5 mM Pefablock (Roche), 10 μM Leupeptin, 5 μM Trypsininhibitor, 2 mM Benzamidin and 10 μM Pepstatin A. The suspension is sonified and thereafter centrifuged for 15 min at 10,000 g. The resulting supernatant (platelet lysate) is used for enzymatic testings.
PDE5 activities were measured in a 96-well platform using SPA (scintillation proximity assay) yttrium silicate beads (RPNQ1050 from GE Healthcare). In a first step the PDE activity operates hydrolysis of either [^3H] cGMP (substrate) into [^3H] 5′GMP. In a second step substrate and product are distinguished following addition of SPA yttrium silicate beads. Indeed, in the presence of zinc sulphate the linear [^3H] […] Close proximity of bound [^3H] […] The test volume is 100 pl and contains 20 mM Tris buffer (pH 7.4), 0.1 mg of BSA (bovine serum albumin)/ml, 5 mM Mg^2+, 1 μM motapizone (PDE3 Inhibitor), 10 nM PDE2 inhibitor 2-(3,4-dimethoxybenzyl)-7-[(1R,2R)-2-hydroxy-1-(2-phenylethyl)propyl]-5-methylimidazo[5,1-f][1,2,4]triazin-4(3H)-one, […] (cyclic guanosine monophosphate) (including about 50,000 cpm of [3H]cGMP as a tracer), 1 pl of the respective compound dilution in dimethylsulfoxide (DMSO) and sufficient PDE5-containing platelet lysat (10,000, g supernatant, see above) to ensure that 10-20 wt % of the cGMP is converted under the said experimental conditions. […] After a preincubation of 5 min at 37° C., the reaction is started by adding the substrate (cGMP) and the assay is incubated for a further 15 min; after that, it is stopped by adding SPA beads (50 pl). In accordance with the manufacturer's instructions, the SPA beads had previously been resuspended in water, but are then diluted 1:3 (v/v) in water; the diluted solution also contains 3 mM […]3-isobutyl-1-methylxanthine (IBMX) to ensure a complete PDE activity stop. After the beads have been sedimented (>30 min), the MTP's are analyzed in commercially available luminescence detection devices. The corresponding IC50 values of the compounds for the inhibition of PDE activity are determined from the concentration-effect curves by means of non-linear regression.

T1 sequence (Q07343 whole entry): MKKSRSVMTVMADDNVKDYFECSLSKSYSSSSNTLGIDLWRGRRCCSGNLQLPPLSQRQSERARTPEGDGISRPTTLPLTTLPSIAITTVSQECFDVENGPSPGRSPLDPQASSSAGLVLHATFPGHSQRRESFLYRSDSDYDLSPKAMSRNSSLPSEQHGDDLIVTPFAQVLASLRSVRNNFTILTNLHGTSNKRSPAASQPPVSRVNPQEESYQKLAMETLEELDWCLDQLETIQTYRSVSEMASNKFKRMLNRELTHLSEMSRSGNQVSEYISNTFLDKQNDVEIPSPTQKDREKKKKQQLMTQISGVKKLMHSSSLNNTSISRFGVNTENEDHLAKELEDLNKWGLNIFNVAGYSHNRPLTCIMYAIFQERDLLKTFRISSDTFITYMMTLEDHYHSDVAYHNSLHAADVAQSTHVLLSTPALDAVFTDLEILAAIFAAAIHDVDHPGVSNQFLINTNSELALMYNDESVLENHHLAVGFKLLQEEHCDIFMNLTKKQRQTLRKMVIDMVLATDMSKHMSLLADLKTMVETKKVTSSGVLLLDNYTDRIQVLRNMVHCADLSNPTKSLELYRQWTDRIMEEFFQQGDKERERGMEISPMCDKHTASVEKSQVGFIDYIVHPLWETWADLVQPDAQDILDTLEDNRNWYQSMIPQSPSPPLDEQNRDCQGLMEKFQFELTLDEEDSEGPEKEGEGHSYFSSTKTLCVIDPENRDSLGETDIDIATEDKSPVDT

Compound | IC50 (PDE4B1) | IC50 (human PDE5)
CCOc1cc2c(cc1OC)C(c1ccc(C(=O)N3CCC(n4c(=O)c5sc(-c6ccccc6)cc5n(Cc5cnn(CC)n5)c4=O)CC3)cc1)=N[C@@H]1CCSC[C@H]21 [Example 21, 3-[1-({4-[(4aR,10bR)-9-ethoxy-8-methoxy-3,4,4a,10b-tetrahydro-1H-thiopyrano[4,3-c]isoquinolin-6-yl]phenyl}carbonyl)piperidin-4-yl]-1-[(2-ethyl-2H-1,2,3-triazol-4-yl)methyl]-6-phenylthieno[3,2-d]pyrimidine-2,4(1H,3H)-dione] | 1 to 10 nM | 10 to 100 nM
CCOc1cc2c(cc1OC)C(c1cccc(C(=O)N3CCC(n4c(=O)c5sc(-c6ccccc6)cc5n(Cc5nc(CC)no5)c4=O)CC3)c1)=N[C@@H]1CCSC[C@H]21 [Example 27, 3-[1-({3-[(4aR,10bR)-9-ethoxy-8-methoxy-3,4,4a,10b-tetrahydro-1H-thiopyrano[4,3-c]isoquinolin-6-yl]phenyl}carbonyl)piperidin-4-yl]-1-[(3-ethyl-1,2,4-oxadiazol-5-yl)methyl]-6-phenylthieno[3,2-d]pyrimidine-2,4(1H,3H)-dione] | 1 to 10 nM | < 10 nM
CCOc1cc2c(cc1OC)C(c1ccc(C(=O)N3CCC(n4c(=O)c5sc(-c6ccccc6)cc5n(Cc5nnn(COC)n5)c4=O)CC3)cc1)=N[C@@H]1CCSC[C@H]21 [Example 28, 3-[1-({4-[(4aR,10bR)-9-ethoxy-8-methoxy-3,4,4a,10b-tetrahydro-1H-thiopyrano[4,3-c]isoquinolin-6-yl]phenyl}carbonyl)piperidin-4-yl]-1-{[2-(methoxymethyl)-2H-tetrazol-5-yl]methyl}-6-phenylthieno[3,2-d]pyrimidine-2,4(1H,3H)-dione] | < 1 nM | < 10 nM
CCOc1cc2c(cc1OC)C(c1ccc(C(=O)N3CCC(n4c(=O)c5sc(-c6ccccc6)cc5n(Cc5nnc(CC)o5)c4=O)CC3)cc1)=N[C@@H]1CCSC[C@H]21 [Example 4, 3-[1-({4-[(4aR,10bR)-9-ethoxy-8-methoxy-3,4,4a,10b-tetrahydro-1H-thiopyrano[4,3-c]isoquinolin-6-yl]phenyl}carbonyl)piperidin-4-yl]-1-[(5-ethyl-1,3,4-oxadiazol-2-yl)methyl]-6-phenylthieno[3,2-d]pyrimidine-2,4(1H,3H)-dione] | < 1 nM | 10 to 100 nM

The next lines start with the values.

IC50 (PDE4B1) | IC50 (human PDE5) | Compound
1 to 10 nM | < 10 nM | CCOc1cc2c(cc1OC)C(c1ccc(C(=O)N3CCC(n4c(=O)c5sc(-c6ccc7c(c6)OCO7)cc5n(Cc5nc(CC)no5)c4=O)CC3)cc1)=N[C@@H]1CCSC[C@H]21 [Example 46, 6-(1,3-benzodioxol-5-yl)-3-[1-({4-[(4aR,10bR)-9-ethoxy-8-methoxy-3,4,4a,10b-tetrahydro-1H-thiopyrano[4,3-c]isoquinolin-6-yl]phenyl}carbonyl)piperidin-4-yl]-1-[(3-ethyl-1,2,4-oxadiazol-5-yl)methyl]thieno[3,2-d]pyrimidine-2,4(1H,3H)-dione]
< 1 nM | 10 to 100 nM | CCOc1cc2c(cc1OC)C(c1ccc(C(=O)N3CCC(n4c(=O)c5sc(-c6ccccc6)cc5n(Cc5nc(CCCOC)no5)c4=O)CC3)cc1)=N[C@@H]1CCSC[C@H]21 [Example 50, 3-[1-({4-[(4aR,10bR)-9-ethoxy-8-methoxy-3,4,4a,10b-tetrahydro-1H-thiopyrano[4,3-c]isoquinolin-6-yl]phenyl}carbonyl)piperidin-4-yl]-1-{[3-(3-methoxypropyl)-1,2,4-oxadiazol-5-yl]methyl}-6-phenylthieno[3,2-d]pyrimidine-2,4(1H,3H)-dione]
> 10 nM | < 10 nM | CCOc1cc2c(cc1OC)C(c1cccc(C(=O)N3CCC(n4c(=O)c5sc(-c6ccc(F)cc6)cc5n(Cc5nnn(CC)n5)c4=O)CC3)c1)=N[C@@H]1CCSC[C@H]21 [Example 41, 3-[1-({3-[(4aR,10bR)-9-ethoxy-8-methoxy-3,4,4a,10b-tetrahydro-1H-thiopyrano[4,3-c]isoquinolin-6-yl]phenyl}carbonyl)piperidin-4-yl]-1-[(2-ethyl-2H-tetrazol-5-yl)methyl]-6-(4-fluorophenyl)thieno[3,2-d]pyrimidine-2,4(1H,3H)-dione]
< 1 nM | > 100 nM | CCOc1cc2c(cc1OC)C(c1ccc(C(=O)N3CCC(n4c(=O)c5sc(-c6ccccc6)cc5n(Cc5nccn5C)c4=O)CC3)cc1)=N[C@@H]1CCSC[C@H]21 [Example 53, 3-[1-({4-[(4aR,10bR)-9-ethoxy-8-methoxy-3,4,4a,10b-tetrahydro-1H-thiopyrano[4,3-c]isoquinolin-6-yl]phenyl}carbonyl)piperidin-4-yl]-1-[(1-methyl-1H-imidazol-2-yl)methyl]-6-phenylthieno[3,2-d]pyrimidine-2,4(1H,3H)-dione]
> 10 nM | < 10 nM | CCOc1cc2c(cc1OC)C(c1ccc(C(=O)N3CCC(n4c(=O)c5sc(-c6cc(OC)ccc6OC)cc5n(Cc5nnn(CC)n5)c4=O)CC3)cc1)=N[C@@H]1CCSC[C@H]21 [Example 36, 6-(2,5-dimethoxyphenyl)-3-[1-({4-[(4aR,10bR)-9-ethoxy-8-methoxy-3,4,4a,10b-tetrahydro-1H-thiopyrano[4,3-c]isoquinolin-6-yl]phenyl}carbonyl)piperidin-4-yl]-1-[(2-ethyl-2H-tetrazol-5-yl)methyl]thieno[3,2-d]pyrimidine-2,4(1H,3H)-dione]
